Drawing on ChEMBL document CHEMBL2407070, “Bioactive compounds from the roots of Strophioblachia fimbricalyx” (J Nat Prod, 2013), this text covers IC50 for eleven compounds.

Where only a bound is given, the exact number is not on record here.

In assay [1] the test system is NCI-H187. As to the kind of experiment: Cytotoxicity against human NCI-H187 cells by SRB assay. In kind it is functional, cell-based. (In general: Sulforhodamine B stains cellular protein and so reports cell mass.)
In a further assay the test system is KB. The experiment in a line: Cytotoxicity against human KB cells by SRB assay. In kind it is functional, cell-based.
The subject of the next assay is Vero. As to the kind of experiment: Cytotoxicity against african green monkey Vero cells by SRB assay. In kind it is functional, cell-based. The following applies: Chlorocebus sabaeus.
The next assay relates to Plasmodium falciparum. As to the kind of experiment: Antiplasmodial activity against Plasmodium falciparum K1 after 42 hrs by microdilution method. The following applies: K1, 42 h. In kind it is functional, organism-based.
The next assay deals with MCF7. As to the kind of experiment: cells. To be noted: Homo sapiens.
The test system of assay [2] is NCI-H187. As to the kind of experiment: Cytotoxicity against human NCI-H187 cells. In kind it is functional, cell-based.

Description for MCF7: Cytotoxicity against human MCF7 cells by SRB assay

By IC50 is commonly meant the point on the concentration scale where inhibition reaches its midpoint. Turning to `Cc1c2ccncc2c(C)c2c1[nH]c1ccccc12` [ELLIPTECINE], the values for the IC50 in the assay with NCI-H187 [1], with KB and with Vero were 1.16 µM, 1.19 µM and 1.19 µM, respectively.

For `O[C@@H](c1cc(C(F)(F)F)nc2c(C(F)(F)F)cccc12)[C@H]1CCCCN1` (relative stereo) [(S,R)-MEFLOQUINE], 0.031 µM corresponded to half-maximal inhibition in the assay on Plasmodium falciparum (IC50).

In the case of `C[C@H]1[C@@H](O)O[C@@H]2O[C@@]3(C)CC[C@H]4[C@H](C)CC[C@@H]1[C@@]24OO3` [ARTENIMOL], in the assay on Plasmodium falciparum, the concentration for half-maximal inhibition (IC50) came to 0.0025 µM.

Take `COc1cccc2c1C(=O)c1c(O)c3c(c(O)c1C2=O)C[C@@](O)(C(=O)CO)C[C@@H]3O[C@H]1C[C@H](N)[C@H](O)[C@H](C)O1` [DOXORUBICIN]: the IC50 with NCI-H187 [1] turned out to be 0.14 µM; in the assay with KB, 0.56 µM.

For `COc1cc2c3c(cc(OC)c2cc1C)C(C)(O)OC3=O` (stereo not given), the IC50 in the assay on NCI-H187 [1], with MCF7, in the assay on Plasmodium falciparum and with KB was greater than 10 µM in each case.

In the assay with MCF7, `CC/C(=C(\c1ccccc1)c1ccc(OCCN(C)C)cc1)c1ccccc1` [TAMOXIFEN] gave an IC50 of 5.19 µM.

Regarding `COc1cc2c3c(cc(O)c2cc1C)C(C)(C)C(=O)OC3=O`, the 50% inhibitory concentration (IC50) is 5.7 µM with NCI-H187 [1]; greater than 10 µM with MCF7; 3.9 µM in the assay with Plasmodium falciparum; greater than 10 µM in the assay with KB; greater than 10 µM with Vero.

Take `COC1=C2C(=CC(=O)C(O)=C2C)c2cc(OC)c(C)cc2C1=O`: the IC50 in the assay with NCI-H187 [1] was greater than 10 µM; in the assay on MCF7 it was greater than 10 µM; with Plasmodium falciparum it was 0.0193 µM; with KB, greater than 10 µM; in the assay on Vero, greater than 10 µM.

Regarding `COc1cc2c3c(cc(O)c2cc1C)C(C)(C)C(=O)[C@]1(OC)Oc2c(cc4c(cc(OC)c5cc(C)c(OC)cc54)c2C)O[C@H]31`, the IC50 with NCI-H187 [1], with MCF7, in the assay on Plasmodium falciparum and in the assay with KB was greater than 10 µM throughout.

For the compound `COc1cc2c3c(cc(O)c2cc1C)C(C)(C)C(=O)[C@@]1(OC)Oc2c(cc4c(cc(OC)c5cc(C)c(OC)cc54)c2C)O[C@H]31`, the IC50 with NCI-H187 [1], in the assay on MCF7, in the assay with Plasmodium falciparum and with KB was greater than 10 µM each time.

With `COC1=Cc2c(cc(OC3=C4C(=CC(=O)C4(C)C)c4cc(OC)c(C)cc4C3=O)c3cc(C)c(OC)cc23)C(C)(C)C1=O`, the concentration for half-maximal inhibition (IC50) with NCI-H187 [2] was 8.3 µM; with MCF7, greater than 10 µM; in the assay with Plasmodium falciparum it was 2.9 µM; with KB, greater than 10 µM; in the assay with Vero, greater than 10 µM.
